Measurements from ChEMBL document CHEMBL2040810, “In search for new chemical entities as adenosine receptor ligands: development of agents based on benzo-γ-pyrone skeleton” (Eur J Med Chem, 2012).
Calls of active or inactive are those of the source. No cut-off for these calls is given here.

Key:
[1] = target: T1, Adenosine receptor A3 (Homo sapiens) (UniProt P0DMS8); assay: Displacement of [3H]NECA from human adenosine A3 receptor expressed in HeLa cells at 10 uM after 30 mins by liquid scintillation counting; type: cell-based
T1 sequence (whole entry): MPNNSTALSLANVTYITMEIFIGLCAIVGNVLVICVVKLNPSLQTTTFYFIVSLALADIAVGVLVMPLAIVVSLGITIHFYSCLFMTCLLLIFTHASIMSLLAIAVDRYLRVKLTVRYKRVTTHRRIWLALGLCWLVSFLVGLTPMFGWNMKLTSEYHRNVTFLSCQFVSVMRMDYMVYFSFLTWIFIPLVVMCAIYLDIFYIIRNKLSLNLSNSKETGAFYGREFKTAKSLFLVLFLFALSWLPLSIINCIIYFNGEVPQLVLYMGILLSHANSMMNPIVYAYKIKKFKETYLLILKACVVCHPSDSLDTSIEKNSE

[2] = target: Adenosine receptor A2a (Homo sapiens) (UniProt P29274); assay: Displacement of [3H][…] from human adenosine A2A receptor expressed in HeLa cells at 10 uM after 30 mins by liquid scintillation counting; type: cell-based
[3] = target: T2, Adenosine receptor A1 (Homo sapiens) (UniProt P30542); assay: Displacement of [3H]DPCPX from human adenosine A1 receptor expressed in CHO cells at 10 uM after 60 mins by liquid scintillation counting; type: cell-based
T2 sequence (whole entry): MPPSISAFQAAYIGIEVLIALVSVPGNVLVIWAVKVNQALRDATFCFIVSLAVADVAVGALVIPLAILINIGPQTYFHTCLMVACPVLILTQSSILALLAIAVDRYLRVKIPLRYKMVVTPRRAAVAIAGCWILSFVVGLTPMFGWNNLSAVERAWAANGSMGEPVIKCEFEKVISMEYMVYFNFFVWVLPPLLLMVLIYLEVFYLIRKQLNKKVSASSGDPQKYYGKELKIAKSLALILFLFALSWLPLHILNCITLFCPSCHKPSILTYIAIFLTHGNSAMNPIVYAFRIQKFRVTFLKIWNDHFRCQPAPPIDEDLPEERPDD

[4] = target: T3, Adenosine receptor A2b (Homo sapiens) (UniProt P29275); assay: Displacement of [3H]DPCPX from human adenosine A2B receptor expressed in HEK293 cells at 10 uM after 30 mins by liquid scintillation counting; type: cell-based
T3 sequence (whole entry): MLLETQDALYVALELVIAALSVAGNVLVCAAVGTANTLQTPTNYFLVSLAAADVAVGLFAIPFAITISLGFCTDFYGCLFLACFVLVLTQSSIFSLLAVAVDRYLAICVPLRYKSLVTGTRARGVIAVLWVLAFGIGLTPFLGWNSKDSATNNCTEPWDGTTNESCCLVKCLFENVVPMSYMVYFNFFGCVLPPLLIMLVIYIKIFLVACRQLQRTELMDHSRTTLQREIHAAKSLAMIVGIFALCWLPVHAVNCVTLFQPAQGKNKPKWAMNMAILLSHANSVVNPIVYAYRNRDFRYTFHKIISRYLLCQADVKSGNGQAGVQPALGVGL

Homo sapiens = organism: Homo sapiens; assay: Selectivity ratio for human A2B adenosine receptor over human A3 adenosine receptor
Adenosine receptor A2b = target: T4, Adenosine receptor A2b (Homo sapiens, UniProt P29275); assay: Displacement of [3H]DPCPX from human adenosine A2B receptor expressed in HEK293 cells after 30 mins by liquid scintillation counting; type: cell-based
T4 sequence (P29275 whole entry): T3 sequence (whole entry)

Sequence of Adenosine receptor A2a (Homo sapiens) (P29274 whole entry): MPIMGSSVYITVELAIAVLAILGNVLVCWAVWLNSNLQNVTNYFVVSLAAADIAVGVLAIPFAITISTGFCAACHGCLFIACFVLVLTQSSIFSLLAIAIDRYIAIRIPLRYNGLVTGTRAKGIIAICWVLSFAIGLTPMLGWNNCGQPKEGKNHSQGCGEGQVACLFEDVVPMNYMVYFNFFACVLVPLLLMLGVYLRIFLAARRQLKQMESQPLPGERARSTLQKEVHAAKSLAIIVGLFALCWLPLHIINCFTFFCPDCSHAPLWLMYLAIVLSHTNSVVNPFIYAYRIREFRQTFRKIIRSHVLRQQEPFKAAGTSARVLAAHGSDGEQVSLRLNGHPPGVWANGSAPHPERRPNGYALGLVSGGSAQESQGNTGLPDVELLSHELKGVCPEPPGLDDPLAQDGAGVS

SMILES | Activity [1] | Activity [2] | Activity [3] | Activity [4] | Selectivity ratio (Homo sapiens) | Ki (Adenosine receptor A2b)
O=C(Nc1ccccc1)c1coc2ccccc2c1=O | – | 3% | 3% | > 50% | 2 | 8.51 µM
COc1ccc(NC(=O)c2coc3ccccc3c2=O)cc1O | – | – | – | > 50% | – | 5.82 µM
COc1ccc(NC(=O)c2coc3ccccc3c2=O)cc1OC | – | – | – | > 50% | – | 6.39 µM
O=C(Nc1ccc(O)cc1)c1coc2ccccc2c1=O | – | – | – | > 50% | – | 2.89 µM
O=C(Nc1ccc(O)c(O)c1)c1coc2ccccc2c1=O | – | – | – | > 50% | – | 1.35 µM

Now from value to compound:

Activity [1] | Activity [2] | Activity [3] | Activity [4] | Selectivity ratio (Homo sapiens) | Ki (Adenosine receptor A2b) | SMILES
Active | Active | Active | Active | – | – | COc1ccc(NC(=O)c2cc(=O)c3ccccc3o2)cc1OC
Active | Active | Active | Active | – | – | O=C(Nc1ccc(O)cc1)c1cc(=O)c2ccccc2o1
Active | – | Active | – | – | – | O=C(O)c1cc(=O)c2ccccc2o1
Active | Active | Active | Active | – | – | O=C(Nc1ccc(O)c(O)c1)c1cc(=O)c2ccccc2o1
Active | Active | Active | Active | – | – | COc1ccc(NC(=O)c2cc(=O)c3ccccc3o2)cc1O
Active | Active | Active | Active | – | – | O=C(Nc1ccccc1)c1cc(=O)c2ccccc2o1
